Test results: patent publication US8889156B2, “Calcium-binding agents induce hair growth and/or nail growth” (priority 2009, dated 2014)

Legend:
[1] = HA binding assay (pulldown of fluorescein-labeled peptides, Langmuir isotherm fit); conditions: fit of Langmuir equation
Procedure: Fluorescein-labeled DSS-containing peptides of various lengths were subjected to pulldown assays as follows: Samples containing varying concentrations of fluorescein-labeled peptide (0-100 μM) and a fixed amount (0.3 mg) of HA nanocrystals with a specific surface area of 100 m^2/g (Berkeley Advanced Biomaterials, Berkeley, Calif.) were prepared. Measurements were taken of the absorbance of the labeled peptide at 488 nm (the peak absorbance of the fluorescein label) before and after exposure to the HA. The amount of peptide bound was calculated by comparing the ratio of the final (Af) and initial (Ai) absorbances to the initial concentration (C0) [Cbound=(Af/Ai)C0]. Plots were generated of the amount of peptide bound per meter squared of HA surface area vs. concentration of unbound peptide at equilibrium. The resulting isotherms were fit to the Langmuir isotherm, x/m=(KANmaxCeq)/(1+KACeq), where x/m represents the molar amount of peptide bound per unit of HA surface area, KA is the affinity constant of the peptide for the HA surface (L/Mol), Nmax is the maximum surface concentration (mol/m^2), and Ceq is the molar concentration of unbound peptide at equilibrium (Calis et al. (1995) Pharm Res., 12: 1072-1076).
In order to quantitatively assess the strength of the DSS-HA interaction as well as to determine the roles of peptide length and sequence on binding, fluorescein-labeled, DSS-containing peptides of various lengths were subjected to pulldown assays as described in “Materials and Methods.”
The experimental data were fit to the Langmuir isotherm, which describes the binding of molecules to surfaces with the conditions that (1) all binding sites have the same affinity for the peptide and (2) the peptide will form a monolayer on the surface but cannot accumulate to higher levels (Atkins (1994) Physical chemistry. Freeman, New York). The excellent fit of the Langmuir isotherm to the experimental data validates these conditions, and the constants obtained from this analysis were used for comparisons between peptides. As shown in FIG. 7A and summarized in Table 6, both the binding affinity (KA) and the monolayer concentration (NMax) of the various peptides increased with the number of DSS repeats per peptide. Additionally, several variant peptides were tested (FIGS. 7B, 7C, Table 6): a peptide containing a longer side chain at the first position (4ESS (SEQ ID NO:34)), peptides containing a more sterically hindered hydroxyl group at the second and third positions (4DTT (SEQ ID NO:36), 4NTT (SEQ ID NO:38), 4ETT (SEQ ID NO:37)), peptides lacking a charged group at the first position (4NSS (SEQ ID NO:35), 8ASS (SEQ ID NO:26)), and peptides lacking hydroxyl groups at the second and third positions (DAA-8 (SEQ ID NO:40), 8NAA (SEQ ID NO:41)).

[2] = Tissue specific binding of labeled peptides to sections of human teeth (CLSM); conditions: 5(6)-carboxyfluorescein-labeled peptide, ten minutes
Text: In order to investigate the tissue specificity of DSS peptide binding to tooth tissue, sections of human teeth were exposed to DSS peptides and variants, then imaged by CLSM. The peptides utilized for these experiments were 8DSS (SEQ ID NO:33), 8ASS (SEQ ID NO:26), 8DAA (SEQ ID NO:40), 8NAA (SEQ ID NO:41), 4DSS (SEQ ID NO:31), 4ESS (SEQ ID NO:34), 4NSS (SEQ ID NO:35), 4DTT (SEQ ID NO:36), 4ETT (SEQ ID NO:37), 4NTT (SEQ ID NO:38), and 6DSS (SEQ ID NO:32). Sagittal sections of human teeth extracted during normal clinical practice were polished and then incubated for ten minutes in a solution of the appropriate 5(6) carboxyfluorescein-labeled peptide (12.5pM) containing 10 mM NaCl and 50 mM HEPES, pH 7.0. Control samples were prepared without peptide. Samples were washed extensively after treatment and imaged by CLSM using blue laser illumination (A=488 nm) and a FITC emission filter, with identical camera and microscope settings for each sample. For each section, multiple scans were collected and assembled in an automated mode to generate panels of images representing an area of 13×13 mm, sufficient in most cases to encompass the whole section. […] Significant binding was also seen to the edges of the pulp cavity.

[3] = Binding of labeled peptides to carious lesions in teeth (CLSM); set-up: species or system human; conditions: labeled peptide, settings optimized per sample
Text: Sections of human teeth containing obvious carious lesions, which consist of demineralized enamel, were polished and exposed to 5(6)-carboxyfluorescein-labeled DSS peptides and variants. The sections were washed extensively and imaged by CLSM using blue laser illumination (A=488 nm) and a FITC emission filter, with microscope and camera settings adjusted for each sample to optimize the signal detected from each peptide. The images were examined to identify the relative levels of peptide binding in healthy versus carious tissue. […] Given their ability to remineralize at sites of enamel degradation, they can also be used to initiate remineralization at sites of enamel degradation such as caries or injury sites without causing inappropriate nucleation on healthy tissue surfaces.

[4] = tested on: mineralizing mouse bone marrow nodules; test: Binding to mineralizing mouse bone marrow cultures (fluorescence microscopy); type: cell-based; conditions: labeled peptide, continuous treatment for 3 weeks
Procedure: Mouse bone marrow cultures were grown to confluence in DMEM+10% FBS and then treated continuously for 3 weeks with either 2.5 p.M 5(6)-carboxyfluorescein-labeled 6DSS (SEQ ID NO:32) or 2.5 p.M 5(6)-carboxyfluorescein-labeled peptide #3-1 (control peptide) in α-MEM+10% FBS+50 p.g/mL ascorbic acid 4 mM β-glycerophosphate. Cultures were imaged by fluorescence microscopy using a FITC excitation/emission filter set.
Having established that (DSS)n-containing peptides are able to actively bind HA, we sought to determine whether they would bind to emerging sites of mineralization in biologically derived tissue. Mouse bone marrow (MBM) cultures, cultured under osteogenic conditions, were treated continuously for 3 weeks with either labeled 6DSS (SEQ ID NO:32) peptide or labeled peptide #3-1 (non-calcium-binding control peptide). Cultures were imaged by fluorescence microscopy using a FITC excitation/emission filter set.

[5] = Free peptide with CaCl2 and NaHPO4: formation of HA crystals in solution; conditions: 25 μM free peptide
[6] = Binding of labeled peptide to sagittally sectioned adult human molars (CLSM, Example 6); conditions: fluorescein-labeled peptide, 10 min
Procedure: For binding experiments, sagittally sectioned adult human molars were incubated for 10 min in a solution of 12.5 p.M 5(6)-carboxyfluorescein-labeled 6DSS (SEQ ID NO:32) peptide containing 10 mM NaCl and 50 mM HEPES, pH 7.0. Control samples were prepared without peptide. Samples were rinsed after treatment and imaged by confocal laser scanning microscopy (CLSM) with illumination by a blue Kr/Ar laser (λ=488 nm) and a FITC emission filter. To test binding of DSS-containing peptides to biological tissue, sagittally sectioned human teeth were incubated treated with 6DSS (SEQ ID NO:32) (control samples were prepared without peptide), washed, and imaged by CLSM.

[7] = literature values quoted for comparison; cited from earlier work

## DSS DSS DSS DSS DSS DSS (DSSDSSDSSDSSDSSDSS; synthetic calcium-binding peptide 6DSS)
[1]
  Nmax (maximum monolayer surface concentration): 1.3 × 10^−7 ± 3 × 10^−9 mol/m^2
[1]; fluorescein-labeled peptide 0-100 μM, 0.3 mg HA nanocrystals
  KA (binding affinity for HA): 272,000 ± 26,000 M^−1
[2]
  tissue pattern of binding in the tooth section: bound primarily to the mantle dentin
[2]; identical settings
  level of binding (staining) to tooth surfaces: the greatest levels of staining
[3]
  specificity of binding to carious lesions versus healthy enamel: highly specific binding to carious lesions
  strength of staining of carious lesions: exceptionally strong staining of carious lesions
[4]
  staining of mineralizing MBM nodules: bright staining of the mineralizing MBM nodules
[5]
  enhancement of HA crystal formation by free peptide at subcritical CaHPO4 concentrations: this was not observed
[6]
  binding to dentin: intense fluorescent staining
  binding to enamel: no binding to the enamel was seen

## N[C@@H](COP(=O)(O)O)C(=O)O [phosphoserine]
[7]
  HA binding affinity: 5,000-13,200 M^−1

## N[C@@H](CC(=O)O)C(=O)O [Asp, aspartic acid]
[7]
  HA binding affinity: 220 M⁻¹

## N[C@@H](CCC(=O)O)C(=O)O [glutamic acid]
[7]
  HA binding affinity: 206 M⁻¹

## LIKHILHRL [#3-1, reference compound]
[4]
  staining of mineralizing MBM nodules: no binding seen

## N[C@@H](CO)C(=O)O [serine]
[7]
  HA binding affinity: 317,000 M^−1
